Experimental data as given in patent US20060099666A1, “Analyzer for the simultaneous enzymatic detection of closely related analytes” (Medinov, Inc., priority 2002, published 2006).
Read-outs that look alike come from different tables or passages of the source.

Tests used:
[1] = biological target: alcohol oxidase (Pichia pastoris) (Komagataella phaffii, UniProt P04842); details: Pichia pastoris enzyme
Description: (§1) The Michaelis-Menten constant (KM) of an enzyme can be determined in an aqueous environment from the initial reaction rate of the enzyme catalyzed reaction, by either calorimetric or electrochemical analysis. The initial reaction rate was determined using both methods, based on the results obtained for different concentrations of methanol and ethanol and various alcohol oxydases (Hansenula sp., Pichia pastoris and Candida boidinii). Using the Hanes method (diagram of the concentration/initial rate as a function of the initial concentration of the substrate in the reaction medium), the KM can be calculated, which corresponds to the origin of the straight line, opposite the abscissa.

[2] = biological target: alcohol oxidase (Candida boidini) (Candida boidinii, UniProt Q00922); details: Candida boidini enzyme, electrochemistry
[3] = tested on: alcohol oxidase (Hansenula sp.); assay: KM by the Hanes method, electrochemistry, alcohol oxidase of Hansenula sp.; format: biochemical; details: Hansenula sp. enzyme
Description: as §1

alcohol oxidase = biological target: T1, alcohol oxidase (Komagataella phaffii, UniProt P04842); assay: Tests to improve the observed signals: effect of SDS on enzyme activity; format: biochemical; details: SDS 0.1%
T1 construct: purchased Sigma A-2404
T1 sequence (P04842 1-663): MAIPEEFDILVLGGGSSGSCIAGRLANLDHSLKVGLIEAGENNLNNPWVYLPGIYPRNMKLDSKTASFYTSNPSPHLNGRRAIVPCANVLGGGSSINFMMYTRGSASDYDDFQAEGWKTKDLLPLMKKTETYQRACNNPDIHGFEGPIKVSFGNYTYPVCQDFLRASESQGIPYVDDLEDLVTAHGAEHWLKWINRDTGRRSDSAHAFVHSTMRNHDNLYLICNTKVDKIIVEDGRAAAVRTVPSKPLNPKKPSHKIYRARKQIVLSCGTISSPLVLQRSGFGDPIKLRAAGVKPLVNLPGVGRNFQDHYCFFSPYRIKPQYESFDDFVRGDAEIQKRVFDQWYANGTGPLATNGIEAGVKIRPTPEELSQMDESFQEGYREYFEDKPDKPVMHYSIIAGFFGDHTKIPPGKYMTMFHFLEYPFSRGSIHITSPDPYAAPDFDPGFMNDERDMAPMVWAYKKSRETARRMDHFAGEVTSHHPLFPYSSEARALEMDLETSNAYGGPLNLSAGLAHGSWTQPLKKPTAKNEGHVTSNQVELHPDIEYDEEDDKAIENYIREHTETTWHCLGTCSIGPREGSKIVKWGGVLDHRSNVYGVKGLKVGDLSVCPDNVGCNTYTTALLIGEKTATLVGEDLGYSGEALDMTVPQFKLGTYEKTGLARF
Description: Tests aiming to improve the observed signals were carried out. Low concentrations of SDS (0.1%) allow for a uniform deposit of a sample on the surface of the working electrode, while simultaneously increasing the enzyme activity by a factor of 110%.

alcohol oxidase (Candida boidini), sequence (Q00922 2-663 limits assumed): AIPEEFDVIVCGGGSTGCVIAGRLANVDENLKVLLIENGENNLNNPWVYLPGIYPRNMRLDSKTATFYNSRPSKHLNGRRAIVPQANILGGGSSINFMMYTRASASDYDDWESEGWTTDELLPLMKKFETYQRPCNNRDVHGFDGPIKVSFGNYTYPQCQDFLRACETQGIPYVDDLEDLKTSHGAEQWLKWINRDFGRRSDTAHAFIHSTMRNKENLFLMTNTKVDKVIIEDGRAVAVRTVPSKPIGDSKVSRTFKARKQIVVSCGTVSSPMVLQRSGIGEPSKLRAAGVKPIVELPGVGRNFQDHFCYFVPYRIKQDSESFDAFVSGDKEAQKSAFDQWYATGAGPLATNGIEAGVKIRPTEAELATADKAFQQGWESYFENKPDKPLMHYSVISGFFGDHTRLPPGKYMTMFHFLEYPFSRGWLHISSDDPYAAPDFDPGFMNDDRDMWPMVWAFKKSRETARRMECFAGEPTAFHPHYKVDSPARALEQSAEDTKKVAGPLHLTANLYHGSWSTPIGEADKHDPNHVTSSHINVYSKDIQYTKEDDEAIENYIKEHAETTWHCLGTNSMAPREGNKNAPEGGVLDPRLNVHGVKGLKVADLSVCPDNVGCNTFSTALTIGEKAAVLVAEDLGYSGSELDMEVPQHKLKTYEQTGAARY

CCO [EtOH, ethanol]
Km ([1]; read-out: KM EtOH, [EtOH] 0.05-3.3 mM, colorimetry): 3460 µM
Km ([1]; read-out: KM EtOH, [EtOH] 0.25-5.0 mM, electrochemistry): 2610 µM
Km ([1]; read-out: KM EtOH, [EtOH] 2.5-10.0 mM, electrochemistry): 2910 µM
Km ([2]; read-out: KM EtOH, [EtOH] 0.25-1.25 mM): 8410 µM
Km ([3]; [EtOH] 0.25-5.0 mM, read-out: KM EtOH): 6000 µM

CO [MeOH, methanol]
Km ([1]; read-out: KM MeOH, [MeOH] 0.02-2.5 mM, colorimetry): 640 µM
Km ([1]; read-out: KM MeOH, [MeOH] 0.05-2.5 mM, electrochemistry): 310 µM
Km ([1]; read-out: KM MeOH, [MeOH] 0.125-1.0 mM, electrochemistry): 560 µM
Km ([2]; read-out: KM MeOH, [MeOH] 0.05-0.5 mM): 290 µM
Km ([3]; [MeOH] 0.05-2.5 mM, read-out: KM MeOH): 390 µM

CCCCCCCCCCCCOS(=O)(=O)[O-].[Na+] [SDS]
increasing the enzyme activity by a factor of (alcohol oxidase): 110%
